According to patent publication US8431597B2, “Benzimidazole derivatives” (Pfizer Inc., priority 2007, dated 2013):
Counter-ions that a name gives are not always drawn.

The compounds below were run against T1, Smoothened (SMO) (Mus musculus, UniProt P56726) (assay: Smoothened (SMO)/Sonic Hedgehog (SHh) Transient Transcriptional Activation Assay (Gli-luciferase reporter in C3H10T1/2 cells)). Details: C3H 10T1/2, 2 μM compound; transfected C3H10T1/2 cells, recombinant human SHh 250 ng/mL, 20 hours, luciferase readout; read-out: SMO CELL % INHIBITION @ 2 μM.
T1 construct: C3H10T1/2 cells (ATCC #CCL-226) were split and seeded; endogenous in cells; host or cells: C3H10T1/2 (ATCC #CCL-226)
Format: cell-based, murine
Method in brief: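 C3H10T1/2 cells transiently transfected with a murine Gli-responsive firefly luciferase reporter plus pEGFP were serum-starved 20 h in 0.5% calf serum. Compound (2 μM to 2 nM final) was added with recombinant human SHh at 250 ng/mL final for 20 h at 37 °C. Read-out was Dual-Glo luminescence.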

T1 sequence (P56726 33-793): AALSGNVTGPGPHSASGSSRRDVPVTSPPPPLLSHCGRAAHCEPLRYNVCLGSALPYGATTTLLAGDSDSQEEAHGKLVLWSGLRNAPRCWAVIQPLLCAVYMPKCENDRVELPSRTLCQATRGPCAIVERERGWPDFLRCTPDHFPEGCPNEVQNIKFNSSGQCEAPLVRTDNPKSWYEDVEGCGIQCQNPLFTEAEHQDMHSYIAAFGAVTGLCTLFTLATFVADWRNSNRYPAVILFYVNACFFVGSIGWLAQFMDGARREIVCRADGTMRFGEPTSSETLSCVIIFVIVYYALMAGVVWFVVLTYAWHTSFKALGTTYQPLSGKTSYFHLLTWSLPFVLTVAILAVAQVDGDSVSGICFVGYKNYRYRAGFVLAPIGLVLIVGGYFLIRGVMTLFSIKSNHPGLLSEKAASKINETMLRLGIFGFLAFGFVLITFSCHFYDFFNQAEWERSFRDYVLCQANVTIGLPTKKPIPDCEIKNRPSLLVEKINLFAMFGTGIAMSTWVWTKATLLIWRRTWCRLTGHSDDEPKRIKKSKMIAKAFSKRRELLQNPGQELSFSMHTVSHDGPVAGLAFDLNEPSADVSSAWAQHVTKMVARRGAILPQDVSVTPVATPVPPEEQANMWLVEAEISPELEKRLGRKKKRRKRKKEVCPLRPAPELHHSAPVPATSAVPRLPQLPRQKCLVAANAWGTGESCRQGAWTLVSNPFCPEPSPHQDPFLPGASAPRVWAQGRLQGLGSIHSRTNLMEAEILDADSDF

| inhibition at 2 µM [%] | Structure (SMILES) |
| --- | --- |
| 94.5 | CN1CC[C@@H](NC(=O)Cn2nc3ccccc3n2)C[C@@H]1c1nc2ccccc2[nH]1 [Example 106, N-[(2R,4R)-2-(1H-benzimidazol-2-yl)-1-methylpiperidin-4-yl]-2-(2H-1,2,3-benzotriazol-2-yl)acetamide trifluoroacetate] |
| 88.3 | CSc1ccccc1C(=O)N[C@@H]1CCN(C)[C@@H](c2nc3ccccc3[nH]2)C1 [Example 107, N-[(2R,4R)-2-(1H-benzimidazol-2-yl)-1-methylpiperidin-4-yl]-2-(methylthio)benzamide trifluoroacetate] |
| 86.4 | CN1CC[C@@H](NC(=O)Cn2cc3ccccc3n2)C[C@@H]1c1nc2ccccc2[nH]1 [Example 108, N-[(2R,4R)-2-(1H-benzimidazol-2-yl)-1-methylpiperidin-4-yl]-2-(2H-indazol-2-yl)acetamide trifluoroacetate] |
| 85.2 | CN1CC[C@@H](NC(=O)Cn2ncc3ccccc32)C[C@@H]1c1nc2ccccc2[nH]1 [Example 109, N-[(2R,4R)-2-(1H-benzimidazol-2-yl)-1-methylpiperidin-4-yl]-2-(1H-indazol-1-yl)acetamide trifluoroacetate] |
| 83.2 | CN1CC[C@@H](NC(=O)Cc2ccccc2)C[C@@H]1c1nc2ccccc2[nH]1 [Example 110, N-[(2R,4R)-2-(1H-benzimidazol-2-yl)-1-methylpiperidin-4-yl]-2-phenylacetamide trifluoroacetate] |
| 83.2 | COc1ccc(C(=O)N[C@@H]2CCN(C)[C@@H](c3nc4ccccc4[nH]3)C2)cc1 [Example 111, N-[(2R,4R)-2-(1H-benzimidazol-2-yl)-1-methylpiperidin-4-yl]-4-methoxybenzamide trifluoroacetate] |
| 81.7 | COc1cccc(C(=O)N[C@@H]2CCN(C)[C@@H](c3nc4ccccc4[nH]3)C2)c1 [Example 112, N-[(2R,4R)-2-(1H-benzimidazol-2-yl)-1-methylpiperidin-4-yl]-3-methoxybenzamide trifluoroacetate] |
| 76.1 | CN1CC[C@@H](NC(=O)c2cc3ccccc3n2C)C[C@@H]1c1nc2ccccc2[nH]1 [Example 113, N-[(2R,4R)-2-(1H-benzimidazol-2-yl)-1-methylpiperidin-4-yl]-1-methyl-1H-indole-2-carboxamide trifluoroacetate] |
| 75.5 | CN1CC[C@@H](NC(=O)Cc2nc3ccccc3o2)C[C@@H]1c1nc2ccccc2[nH]1 [Example 114, N-[(2R,4R)-2-(1H-benzimidazol-2-yl)-1-methylpiperidin-4-yl]-2-(1,3-benzoxazol-2-yl)acetamide trifluoroacetate] |
| 69.6 | CN1CC[C@@H](NC(=O)c2cnn3ccccc23)C[C@@H]1c1nc2ccccc2[nH]1 [Example 115, N-[(2R,4R)-2-(1H-benzimidazol-2-yl)-1-methylpiperidin-4-yl]pyrazolo[1,5-a]pyridine-3-carboxamide trifluoroacetate] |
| 68.2 | CN1CC[C@@H](NC(=O)Cc2ccc3c(c2)CCO3)C[C@@H]1c1nc2ccccc2[nH]1 [Example 116, N-[(2R,4R)-2-(1H-benzimidazol-2-yl)-1-methylpiperidin-4-yl]-2-(2,3-dihydro-1-benzofuran-5-yl)acetamide trifluoroacetate] |
| 65.4 | COc1ccc(C(=O)N[C@@H]2CCN(C)[C@@H](c3nc4ccccc4[nH]3)C2)cc1F [Example 117, N-[(2R,4R)-2-(1H-benzimidazol-2-yl)-1-methylpiperidin-4-yl]-3-fluoro-4-methoxybenzamide trifluoroacetate] |
| 65.1 | Cc1cccc2cc(C(=O)N[C@@H]3CCN(C)[C@@H](c4nc5ccccc5[nH]4)C3)nn12 [Example 118, N-[(2R,4R)-2-(1H-benzimidazol-2-yl)-1-methylpiperidin-4-yl]-7-methylpyrazolo[1,5-a]pyridine-2-carboxamide trifluoroacetate] |
| 64.5 | CN1CC[C@@H](NC(=O)c2ccc3nonc3c2)C[C@@H]1c1nc2ccccc2[nH]1 [Example 119, N-[(2R,4R)-2-(1H-benzimidazol-2-yl)-1-methylpiperidin-4-yl]-2,1,3-benzoxadiazole-5-carboxamide trifluoroacetate] |
| 63.7 | CN1CC[C@@H](NC(=O)Cc2ccccc2F)C[C@@H]1c1nc2ccccc2[nH]1 [Example 120, N-[(2R,4R)-2-(1H-benzimidazol-2-yl)-1-methylpiperidin-4-yl]-2-(2-fluorophenyl)acetamide trifluoroacetate] |
| 62.3 | CN1CC[C@@H](NC(=O)c2ccc(C#N)cc2)C[C@@H]1c1nc2ccccc2[nH]1 [Example 121, N-[(2R,4R)-2-(1H-benzimidazol-2-yl)-1-methylpiperidin-4-yl]-4-cyanobenzamide trifluoroacetate] |

| inhibition at 2 µM [%] | Structure (SMILES) |
| --- | --- |
| 57.5 | CN1CC[C@@H](NC(=O)C(F)(F)c2ccccc2)C[C@@H]1c1nc2ccccc2[nH]1 [Example 122, N-[(2R,4R)-2-(1H-benzimidazol-2-yl)-1-methylpiperidin-4-yl]-2(2-difluoro-2-phenylacetamide trifluoroacetate] |
| 52.2 | CN1CC[C@@H](NC(=O)Cc2cccc(F)c2)C[C@@H]1c1nc2ccccc2[nH]1 [Example 123, N-[(2R,4R)-2-(1H-benzimidazol-2-yl)-1-methylpiperidin-4-yl]-2-(3-fluorophenyl)acetamide trifluoroacetate] |
| 50.6 | Cc1cc(C(=O)N[C@@H]2CCN(C)[C@@H](c3nc4ccccc4[nH]3)C2)n(C(C)(C)C)n1 [Example 124, N-[(2R,4R)-2-(1H-benzimidazol-2-yl)-1-methylpiperidin-4-yl]-1-tert-butyl-3-methyl-1H-pyrazole-5-carboxamide trifluoroacetate] |
| 102 | O=C(N[C@@H]1CCN(C2CC2)[C@@H](c2nc3ccccc3[nH]2)C1)c1ccc2c(c1)OCCO2 [Example 125, N-[(2R,4R)-2-(1H-benzimidazol-2-yl)-1-cyclopropylpiperidin-4-yl]-2,3-dihydro-1,4-benzodioxine-6-carboxamide hydrochloride] |
| 110 | Cc1ccc(NC(=O)N[C@@H]2CCN(C)[C@@H](c3nc4ccc(Cl)cc4[nH]3)C2)cn1 [Example 126, 1-[(2R,4R)-2-(6-chloro-1H-benzimidazol-2-yl)-1-methylpiperidin-4-yl]-3-(6-methylpyridin-3-yl)urea hydrochloride] |
| 103 | Cc1ccc(NC(=O)N[C@@H]2CCN(C)[C@@H](c3nc4cc(C#N)ccc4[nH]3)C2)cn1 [Example 127, 1-[(2R,4R)-2-(5-cyano-1H-benzimidazol-2-yl)-1-methylpiperidin-4-yl]-3-(6-methylpyridin-3-yl)urea hydrochloride] |
| 102 | Cc1ccc(NC(=O)N[C@@H]2CCN(C)[C@@H](c3nc4cc(C(F)(F)F)ccc4[nH]3)C2)cn1 [Example 128, 1-(6-methylpyridin-3-yl)-3-{(2R,4R)-1-methyl-2-[5-(trifluoromethyl)-1H-benzimidazol-2-yl]piperidin-4-yl}urea hydrochloride] |
| 104 | COc1ccc2[nH]c([C@H]3C[C@H](NC(=O)Nc4ccc(C)nc4)CCN3C)nc2c1 [Example 129, 1-[(2R,4R)-2-(5-methoxy-1H-benzimidazol-2-yl)-1-methylpiperidin-4-yl]-3-(6-methylpyridin-3-yl)urea hydrochloride] |
| 106 | Cc1ccc2[nH]c([C@H]3C[C@H](NC(=O)Nc4ccc(C)nc4)CCN3C)nc2c1 [Example 130, 1-[(2R,4R)-1-methyl-2-(5-methyl-1H-benzimidazol-2-yl)piperidin-4-yl]-3-(6-methylpyridin-3-yl)urea hydrochloride] |
| 105 | Cc1ccc(NC(=O)N[C@@H]2CCN(C)[C@@H](c3nc4cc(C)c(C)cc4[nH]3)C2)cn1 [Example 131, 1-[(2R(4R)-2-(5,6-dimethyl-1H-benzimidazol-2-yl)-1-methylpiperidin-4-yl]-3-(6-methylpyridin-3-yl)urea hydrochloride] |
| 108 | Cc1ccc(NC(=O)N[C@@H]2CCN(C)[C@@H](c3nc4ccc(F)cc4[nH]3)C2)cn1 [Example 132, 1-[(2R,4R)-2-(6-fluoro-1H-benzimidazol-2-yl)-1-methylpiperidin-4-yl]-3-(6-methylpyridin-3-yl)urea hydrochloride] |
| 108 | COc1ccc(NC(=O)N[C@@H]2CCN(C)[C@@H](c3nc4ccc(Cl)cc4[nH]3)C2)cn1 [Example 133, 1-[(2R,4R)-2-(6-chloro-1H-benzimidazol-2-yl)-1-methylpiperidin-4-yl]-3-(6-methoxypyridin-3-yl)urea hydrochloride] |
| 105 | COc1ccc(NC(=O)N[C@@H]2CCN(C)[C@@H](c3nc4cc(C#N)ccc4[nH]3)C2)cn1 [Example 134, 1-[(2R,4R)-2-(5-cyano-1H-benzimidazol-2-yl)-1-methylpiperidin-4-yl]-3-(6-methoxypyridin-3-yl)urea hydrochloride] |
| 104 | COc1ccc(NC(=O)N[C@@H]2CCN(C)[C@@H](c3nc4cc(C(F)(F)F)ccc4[nH]3)C2)cn1 [Example 135, 1-(6-methoxypyridin-3-yl)-3-{(2R,4R)-1-methyl-2-[5-(trifluoromethyl)-1H-benzimidazol-2-yl]piperidin-4-yl}urea hydrochloride] |
| 106 | COc1ccc2[nH]c([C@H]3C[C@H](NC(=O)Nc4ccc(OC)nc4)CCN3C)nc2c1 [Example 136, 1-[(2R,4R)-2-(5-methoxy-1H-benzimidazol-2-yl)-1-methylpiperidin-4-y)]-3-(6-methoxypyridin-3-yl)urea hydrochloride] |
